In ChEMBL document CHEMBL1147343, “Isolation and identification of an antifungal naphthopyran derivative from Rhinacanthus nasutus” (1993):
≈ marks a conversion by molar mass, not a printed value.

Tested on: Pyricularia oryzae
Assay: Antifungal activity against Pyricularia oryzae assessed as inhibition of spore germination
Assay type: functional
Details: read-out: ED50 (the source's name)

## CC1(C)COC2=C(C1)C(=O)c1ccccc1C2=O
  EC50: 0.4 µg/mL (≈ 1.65 µM)
